Where “and” joins values, the source holds several entries; their conditions need not be identical. Equal entries are not always repeated. Structures can show the parent of a compound that is named as a salt. Where two headings read alike, the source gives them in different places.
Assays:
[1] = system: LTB4-mediated CD11b upregulation on human neutrophils; assay: LTB4-mediated CD11b upregulation on human neutrophils (flow cytometry, anti-CD11b-FITC); assay type: cell-based
Experimental: The following Assay method was used to evaluate the effects of 3 compounds for LTB4-mediated CD11b upregulation on human neutrophils:
Note: The Assay procedure described herein was modeled after a previously published method(viz., Prostaglandins, Leukot, Essent. Fatty Acids. 46:265-270. 1992, Biochem. Pharmacol. 49:1683-1690. 1995), the disclosure of which is incorporated herein by reference.
Approximately 1-2 mg of each compound was weighed and diluted to 1 mM in neat dimethyl sulphoxide (DMSO). These stocks were then diluted (using “doubling” dilutions) in assay buffer.
The assay buffer used throughout the studies consisted of Hanks Balanced Salts Solution (HBSS) with added 0.5% bovine serum albumin, low endotoxin (ICN Biomedicals Catalog #16-980-49). After dissolving the BSA in the HBSS, the buffer was membrane-filtered (0.2 μ) before use.
Human blood was drawn into 3×10 ml EDTA-K3 Vacutainer tubes, which were pooled and mixed in a 50 ml, blue cap polypropylene tube. Three ml portions of Mono-Poly Resolving medium (MPRM; ICN #16-980-49) were dispensed into 4 separate 13×100 glass disposable tubes. An additional 0.3 ml of PBS (phosphate buffered saline) was added to each tube and mixed with the MPRM by vigorous vortexing. Exactly 3.5 ml of the blood was carefully layered on top of the four MPRM-water mixtures. The tubes were gradually accelerated to 400×g and spun at this speed for 30 min at room temperature. Tubes were removed from the centrifuge and both the plasma and top cell (mononuclear) layers were removed and discarded. The second layer of cells was carefully collected, pooled and washed with assay buffer. The collected neutrophil cell preparation was then spun at 400×g for 5 min and re-washed once again. The cells were resuspended in assay buffer and counted using a Cell-Dyn 1600 cell counter (Abbott Diagnostics Co.). They were then resuspended in buffer at 9×10^6 cells/ml and held briefly for addition in a later step of the assay.
LTB4, (Biomol; ETOH stock @148.5 μM) was diluted to a 3.9 μM stock in assay buffer by dilution of 10 μl ETOH stock+371 μl assay buffer, mixed well and further diluted 1:100 (100 μl+9.9 ml buffer) to make a use stock of 39 nm in buffer for later use. The final concentration of LTB4 (3 nM) was determined after several experimental runs.
Exactly 10 μl of each putative compound/dilution and 10 μl of anti-CD11b-FITC (FITC=Fluorescein Isothiocyanate; Biosource Intl., #AHS1148) was carefully added to the bottom of 12×75 mm polypropylene tubes (Falcon #2063) as determined by the experimental design. Following this, 100 μl of the human neutrophil preparation (9E6/ml) was added and mixed well by vortexing. The compound/cell mixtures were incubated together for 15 minutes at room temperature. Following this incubation, 10 μl of diluted LTB4 stock was added (to make 3 nM final LTB4 concentration), mixed by vortexing and incubated in a 37° C. shaking water bath for 30 min. Following this the tubes were immediately placed on ice for 10 minutes. Following this 1 ml of diluted BD FACS Lyse (Becton Dickinson Fluorescense Activated Cell Sorting Lyse) was added to the tubes and vortexed. 10 minutes later the tubes were spun at 400×g at room temperature. After centrifugation, the tubes were aspirated and re-suspended in 1.0 ml of 1% paraformaldehyde solution.
The samples were then analyzed for fluorescence intensity (linear scale) using an EPICS XL flow cytometer and the “Mo-1 Isolated Neutrophil” protocol.
The mean fluorescence intensity (MFI) for each sample was computed using WinList software and expressed as percentage of maximum MFI.Microsoft Excel and further graphed and analyzed using linear regression.

[2] = Homo sapiens, Neutrophil, isolated human neutrophils, 3 nM LTB4, semicolons separate individual assay determinations, read-out: CD11b/CD18 IC50
[3] = isolated human neutrophils, 3 nM LTB4, semicolons separate individual assay determinations, read-out: CD11b/CD18 IC50
[4] = Homo sapiens, Neutrophil, read-out: CD11b/CD18 IC50 (nM), isolated human neutrophils, 3 nM LTB4, semicolons separate individual assay determinations
[5] = read-out: CD11b/CD18 IC50, isolated human neutrophils, 3 nM LTB4, semicolons separate individual assay determinations, sodium salt

## CCCc1c(OCCCOc2cc(O)c(C3CCOC3)cc2CC)cccc1Oc1ccccc1C(=O)[O-].[Na+] (stereo not shown) (hydrate or solvate) [Example 15, 2-(3-{3-[2-Ethyl-5-hydroxy-4-(tetrahydrofuran-3-yl)phenoxy]propoxy}-2-propylphenoxy)benzoic acid sodium salt hemihydrate]
other
  melting point: 67 to 71 °C

## CCCc1c(OCCCOc2cc(O)c(-c3ccsc3)cc2CC)cccc1Oc1ccccc1C(=O)O (hydrate or solvate) [Example 17, 2-{3-[3-(2-Ethyl-5-hydroxy-4-thiophen-3-yl-phenoxy)propoxy]-2-propyl-phenoxy}benzoic acid hydrate]
other
  melting point: 90 to 95 °C (dec.)

## CCCc1c(OCCCOc2cc(O)c(-c3ccc(F)cc3)cc2CC)cccc1Oc1ccccc1C(=O)O [Compound A, reference compound]
[1]; Homo sapiens, Neutrophil, comparison compounds, isolated human neutrophils, 3 nM LTB4, A = average of 3 tests, read-out: IC-50 (nM) ± SEM
  IC50: 1.7 ± 0.25 nM

## CCCc1c(OCCCOc2cc(O)c(-c3ccc(F)cc3)cc2CC)cccc1Oc1ccccc1C#N [Compound B, reference compound]
[1]; comparison compounds, isolated human neutrophils, 3 nM LTB4, A = average of 3 tests
  IC-50 (nM) ± SEM: not active

## CCCc1c(OCCCOc2cc(O)c(-c3cocn3)cc2CC)cccc1Oc1ccccc1C(=O)O [Example 1, 2-{3-[3-(2-Ethyl-5-hydroxy-4-oxazol-4-yl-phenoxy)propoxy]-2-propyl-phenoxy}benzoic acid]
[1]; [2]
  IC50: 480 nM

## CCCc1c(OCCCOc2cc(O)c(-c3cnc[nH]3)cc2CC)cccc1Oc1ccccc1C(=O)O [Example 2, 2-(3-{3-[2-Ethyl-5-hydroxy-4-(3H-imidazol-4-yl)phenoxy]propoxy}-2-propyl-phenoxy)benzoic acid hydrochloride]
[1]; [2]
  IC50: 5880 nM

## CCCc1c(OCCCOc2cc(O)c(-c3cscn3)cc2CC)cccc1Oc1ccccc1C(=O)O [Example 3, 2-{3-[3-(2-Ethyl-5-hydroxy-4-thiazol-4-yl-phenoxy)propoxy]-2-propyl-phenoxy}benzoic acid]
[1]; [2]
  IC50: 353 nM
[1]; [3]
  IC50: 339 nM

## CCCc1c(OCCCOc2cc(O)c(-c3ccn[nH]3)cc2CC)cccc1Oc1ccccc1C(=O)O [Example 4, 2-(3-{3-[2-Ethyl-5-hydroxy-4-(2H-pyrazol-3-yl)phenoxy]propoxy}-2-propyl-phenoxy)benzoic acid]
[1]; [2]
  IC50: 74 nM
[1]; [3]
  IC50: 117 nM

## CCCc1c(OCCCOc2cc(O)c(-c3ccno3)cc2CC)cccc1Oc1ccccc1C(=O)O [Example 5, 2-{3-[3-(2-ethyl-5-hydroxy-4-isoxazol-5-yl-phenoxy)propoxy]-2-propylphenoxy}benzoic acid]
[1]; [2]
  IC50: 175 nM
[1]; [3]
  IC50: 223 nM

## CCCc1c(OCCCOc2cc(O)c(-c3cnn[nH]3)cc2CC)cccc1Oc1ccccc1C(=O)O [Example 6]
[1]; [2]
  IC50: 260 nM

## CCCc1c(OCCCOc2cc(O)c(-n3cccc3)cc2CC)cccc1Oc1ccccc1C(=O)OC [Example 7, 2-{3-[3-(2-ethyl-5-hydroxy-4-pyrrol-1-yl-phenoxy)propoxy]-2-propyl-phenoxy}benzoic acid methyl ester]
[1]; [2]
  IC50: 2020 nM
[1]; [3]
  IC50: 3790 nM

## CCCc1c(OCCCOc2cc(O)c(-c3nc(Br)ns3)cc2CC)cccc1Oc1ccccc1C(=O)O [Example 8, 2-(3-{3-[4-(3-bromo-[1,2,4]thiadiazol-5-yl)-2-ethyl-5-hydroxyphenoxy]propoxy}-2-propylphenoxy)benzoic acid]
[1]; [2]
  IC50: > 50000 nM

## CCCc1c(OCCCOc2cc(O)c(-c3cccs3)cc2CC)cccc1Oc1ccccc1C(=O)O [Example 9, 2-{3-[3-(2-Ethyl-5-hydroxy-4-thiophen-2-yl-phenoxy)propoxy]-2-propyl-phenoxy}benzoic acid sodium salt]
[1]; [4]
  IC50: 23 nM
[1]; [5]
  IC50: 20 nM

## CCCc1c(OCCCOc2cc(O)c(-c3cnn(C)c3)cc2CC)cccc1Oc1ccccc1C(=O)O [Example 10, 2-(3-{3-[2-ethyl-5-hydroxy-4-(1-methyl-1H-pyrazol-4-yl)-phenoxy]propoxy}-2-propylphenoxy)benzoic acid]
[1]; [3]
  IC50: 14 nM and 4.4 nM and 8.3 nM

## CCCc1c(OCCCOc2cc(O)c(-c3nccs3)cc2CC)cccc1Oc1ccccc1C(=O)O [Example 11, 2-{3-[3-(2-Ethyl-5-hydroxy-4-thiazol-2-yl-phenoxy)propoxy]-2-propyl-phenoxy}benzoic acid]
[1]; [3]
  IC50: 620 nM and 2560 nM and 1010 nM

## CCCc1c(OCCCOc2cc(O)c(-c3c(C)noc3C)cc2CC)cccc1Oc1ccccc1C(=O)O [Example 12, 2-(3-{3-[4-(3,5-Dimethylisoxazol-4-yl)-2-ethyl-5-hydroxyphenoxy]propoxy}-2-propylphenoxy)benzoic acid sodium salt]
[1]; [4]
  IC50: 10000 nM
[1]; [5]
  IC50: 5700 nM

## CCCc1c(OCCCOc2cc(O)c(-c3ccco3)cc2CC)cccc1Oc1ccccc1C(=O)O [Example 13, 2-{3-[3-(2-Ethyl-4-furan-2-yl-5-hydroxyphenoxy)propoxy]-2-propylphenoxy}-benzoic acid sodium salt]
[1]; [4]
  IC50: 39 nM
[1]; [5]
  IC50: 54 nM

## CCCc1c(OCCCOc2cc(O)c(-c3ccoc3)cc2CC)cccc1Oc1ccccc1C(=O)O [Example 14]
[1]; [2]
  IC50: 31 nM
[1]; [3]
  IC50: 30 nM

## CCCc1c(OCCCOc2cc(O)c(C3CCOC3)cc2CC)cccc1Oc1ccccc1C(=O)O (stereo not shown) [Example 15, 2-(3-{3-[2-Ethyl-5-hydroxy-4-(tetrahydrofuran-3-yl)phenoxy]propoxy}-2-propylphenoxy)benzoic acid sodium salt hemihydrate]
[1]; [4]
  IC50: 27 nM

## CCCc1c(OCCCOc2cc(O)c(C3CCCN3)cc2CC)cccc1Oc1ccccc1C(=O)O (stereo not shown) [Example 16, 2-{3-[3-(2-Ethyl-5-hydroxy-4-pyrrolidin-2-yl-phenoxy)propoxy]-2-propyl-phenoxy}benzoic acid hydrochloride hydrate]
[1]; [2]
  IC50: 1080 nM
[1]; isolated human neutrophils, 3 nM LTB4, semicolons separate individual assay determinations, hydrochloride hydrate, read-out: CD11b/CD18 IC50
  IC50: 837 nM

## CCCc1c(OCCCOc2cc(O)c(-c3ccsc3)cc2CC)cccc1Oc1ccccc1C(=O)O [Example 17, 2-{3-[3-(2-Ethyl-5-hydroxy-4-thiophen-3-yl-phenoxy)propoxy]-2-propyl-phenoxy}benzoic acid hydrate]
[1]; [2]
  IC50: 11 nM
[1]; isolated human neutrophils, 3 nM LTB4, semicolons separate individual assay determinations, hydrate, read-out: CD11b/CD18 IC50
  IC50: 5.6 nM and 8 nM

Reference: patent publication US6797723B1, “Heterocycle substituted diphenyl leukotriene antagonists” (Eli Lilly and Company, priority 1999, dated 2004)
